Measured values as given in BigSolDB 2.1.

O=C1CCC(=O)O1
solubility (mole fraction)
Details	283.15 K	288.15 K	293.15 K	298.15 K	303.15 K	308.15 K	313.15 K	318.15 K	323.15 K
in THF	0.071	0.077	0.085	0.093	0.104	0.115	0.129	0.145	0.164
in gamma-butyrolactone	0.197	0.218	0.239	0.261	0.283	0.307	0.331	0.354	0.378
